Measurements as given in EP0548834B1, “Stable hexahydrate of etoposide 4'-phosphate disodium salt” (Bristol-Myers Squibb Company, priority 1991, dated 1993).

Columns and labels:
[1] = storage stability (potency / % remaining after storage); format: physicochemical
[2] = cited from earlier work

## COc1cc(C2c3cc4c(cc3C(OC3OC5COC(C)OC5C(O)C3O)C3COC(=O)C23)OCO4)cc(OC)c1OP(=O)([O-])[O-].O.O.O.O.O.O.[Na+].[Na+] (centres unmarked) [hexahydrate, Etoposide 4'-Phosphate Disodium salt hexahydrate]
[1]; 9 weeks at 50°C, in sealed glass vials
  % Remaining: 99.4%
[1]; 28 days at 37°C
  potency remaining: 100%
[1]; 28 days at 80% Relative Humidity, 37°C
  % Remaining: 100.0%
[1]; storage for 63 days at 30°C
  potency: > 99%

## COc1cc([C@@H]2c3cc4c(cc3[C@@H](O[C@@H]3O[C@@H]5CO[C@@H](C)O[C@H]5[C@H](O)[C@H]3O)[C@H]3COC(=O)[C@H]23)OCO4)cc(OC)c1O [etoposide, Etoposide]
[2]
  solubility in water: about 0.1 mg/ml
